This note sets out measurements from patent US20120190648A1, “FLUORINATED CYCLOPROPANE ANALOGS OF GLUTAMIC ACID” (priority 2009, published 2012).

Where two headings read alike, the source gives them in different places.

The target in the assay is mGlu4 receptor (Rattus norvegicus, UniProt P31423). Briefly: mGlu4 receptor test at different doses (1 nM to 1 mM) to determine EC50. It is filed as cell-based. How it is done: The compounds according to the invention have been tested on the mGlu4 receptor at different doses (between 1 nM and 1 mM) in order to determine their EC50 value. This test has been carried out according to the protocol described in: C. Selvam, C. Goudet, N. Oueslati, J.-P. Pin, F. Acher J. Med. Chem. 2007, 50, 4656-4664.
mGlu4 receptor, sequence (P31423 33-912): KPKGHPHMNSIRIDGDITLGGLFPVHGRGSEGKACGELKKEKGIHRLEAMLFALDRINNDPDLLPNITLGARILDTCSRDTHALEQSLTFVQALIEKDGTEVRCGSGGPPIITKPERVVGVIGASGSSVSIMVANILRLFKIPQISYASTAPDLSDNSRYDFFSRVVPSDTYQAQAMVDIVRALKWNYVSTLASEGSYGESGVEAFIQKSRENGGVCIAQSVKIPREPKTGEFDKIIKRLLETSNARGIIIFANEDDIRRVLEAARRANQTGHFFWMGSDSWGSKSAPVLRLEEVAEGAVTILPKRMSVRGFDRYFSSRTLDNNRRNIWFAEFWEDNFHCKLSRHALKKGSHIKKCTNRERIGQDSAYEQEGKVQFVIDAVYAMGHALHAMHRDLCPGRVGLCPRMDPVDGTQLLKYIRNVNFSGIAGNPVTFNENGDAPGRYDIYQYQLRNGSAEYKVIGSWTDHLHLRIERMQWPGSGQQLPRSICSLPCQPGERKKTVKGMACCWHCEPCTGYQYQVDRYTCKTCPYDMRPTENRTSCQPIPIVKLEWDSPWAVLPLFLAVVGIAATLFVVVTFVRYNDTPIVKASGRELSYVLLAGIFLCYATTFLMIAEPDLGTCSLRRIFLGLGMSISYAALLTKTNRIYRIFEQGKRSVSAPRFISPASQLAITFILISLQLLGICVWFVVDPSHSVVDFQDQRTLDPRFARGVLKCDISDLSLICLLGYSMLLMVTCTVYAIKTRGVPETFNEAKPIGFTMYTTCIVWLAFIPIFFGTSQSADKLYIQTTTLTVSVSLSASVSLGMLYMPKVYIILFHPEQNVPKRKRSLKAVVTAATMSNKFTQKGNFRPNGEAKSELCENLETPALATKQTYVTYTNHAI

Turning to `N[C@]1(C(=O)O)C[C@@]1(F)C(O)P(=O)(O)O` (mixture of isomers) [cis-I-3], the EC50 (commonly the concentration giving half of the maximal effect) was determined as 27.4 µM.

Take `NC1(C(=O)O)CC1(F)CP(=O)(O)O` (racemic) [cis-I-4]: the EC50 was 0.34 µM.

As for `NC1(C(=O)O)CC1(F)CS(=O)(=O)O` (racemic) [cis-I-6], the EC50 (mGlu4 receptor, doses between 1 nM and 1 mM, protocol of Selvam et al. J. Med. Chem. 2007, 50, 4656-4664, read-out: EC50) worked out at 85.6 µM.
